Results taken from US12365643B2, “Phenoxy carboxylic acid compounds and medical uses thereof” (QINGDAO RISING BIOTECHNOLOGY CO., LTD, priority 2018, dated 2025).

Key:
CPT1α = CPT1α protein level by Western blotting in HepG2; assay type: cell-based, human; details: 1 μM, 24 hours, HepG2, Western blotting (FIG. 6A)
Text: (§1) Carnitine palmitoyltransferase (CPT1α) is a rate-limiting enzyme of fatty acid oxidation. When the body or tissues are lacking in energy, CPT1α catalyzes the entry of fatty acids into mitochondria for […], and at the same time, CPT1α is also involved in the regulation of fatty acid-induced insulin resistance and inflammation. Protein kinase B/glycogen synthase kinase 3β (AKT/GSK3β) signaling pathway and insulin receptor substrate 1 (IRS-1) are key signaling pathways that regulate glucose metabolism in response to insulin signal. Therefore, by determining the effects of compounds on the CPT1α protein level and the AKT, GSK3β and IRS-1 protein phosphorylation levels, it is possible to evaluate the regulatory effects of the compounds on glycolipid metabolism.
(§2) After human liver cancer cells HepG2 were incubated with the compound of the present application or the control drug at 1 μM for 24 hours, the CPT1α protein level and the AKT, GSK3β and IRS-1 phosphorylated protein levels in the cells were determined by Western blotting; after gray-scale scanning by using Image J15.0.1, normalization was performed by using β-tubulin protein level as internal control, and the quantitative analysis results were shown in FIG. 6.

phosphorylated GSK3β = test: Phosphorylated GSK3β level by Western blotting in HepG2; assay type: cell-based, human; details: 1 μM, 24 hours, HepG2, Western blotting (FIG. 6B)
Text: as §1, §2

phosphorylated IRS-1 = test: Phosphorylated IRS-1 level by Western blotting in HepG2; assay type: cell-based, human; details: 1 μM, 24 hours, HepG2, Western blotting (FIG. 6C)
Text: as §1, §2

[1] = test system: antioxidant response element (ARE); test: ARE luciferase reporter gene activity in HepG2 cells; assay type: cell-based, human; details: 50 μM, HepG2 stably transfected (FIG. 4)
Protocol: (§3) NF-κB was the most important inflammatory signal pathway. SW480 human colon cancer cells stably transfected with a luciferase reporter gene driven by NF-κB were used to determine the effects of the compound of the present application and the control drug gemfibrozil on NF-κB transcriptional activity, which comprised the following steps. • (1) Cells stably transfected with NF-κB Luc were cultivated to exponential growth, inoculated at a culture medium concentration of 1×10^5/[…] in a 24-well plate, and cultured for 24 hours, the medium was discarded, and the test compound or gemfibrozil formulated with serum-free medium at 50 μM were added to the 24-well plate and incubation was continued for 6 hours. After washing once with 200 μL of PBS, 100 μL of reporter gene cell lysis buffer was added, the cells were lysed on ice for 10 minutes, and the cell lysate was collected by pipetting. • (2) After centrifugation was performed at 8000 rpm and 4° C. for 10 min, the supernatant was pipetted for fluorescence assay. • (3) The measurement gap time of chemiluminescence analyzer was set to 2 s and the measurement time was set to 10 s. Automatic sample injection was adopted, 50 μL of luciferase assay reagent was added to each well. The reporter gene cell lysis buffer was used as a blank control. • (4) After centrifugation, the supernatant was taken, and the BCA method was used to determine the protein concentration so as to normalize the reporter gene results.
In this experimental example, the luciferase activity in HepG2 human liver cancer cells stably transfected with a luciferase reporter gene driven by antioxidant response element (ARE) was determined to evaluate the regulatory effects of the compound of the present application and gemfibrozil on the transcriptional activity of transcription factor Nrf2 and the cellular oxidative stress response signals, in which the operation process of the reporter gene assay was the same as that of Experimental Example 2.2.

PGC1α = PGC1α mRNA expression by real-time quantitative PCR in HepG2; assay type: cell-based, human; details: 1 μM, 6 hours, HepG2 (FIG. 5C)
Text: (§4) Peroxisome proliferation factor activated receptor (PPAR) is an important nuclear receptor that regulates glycolipid metabolism, including three subtypes: α, β/δ and γ. Peroxisome proliferator-activated receptor γ coactivator 1α (PGC-1α) is its auxiliary transcriptional activator. Acyl-CoA oxidase 1 (ACOX1) is the first rate-limiting enzyme for fatty acid β oxidation. Fatty acid binding protein 1 (FABP1) is highly expressed in liver, and can bind fatty acid, heme and other molecules to reduce their toxicity and damage. Up-regulating the expression level of these genes helps to improve the body's metabolism, and their agonists are an important class of anti-metabolic drugs. After the compound of the present application (1 μM) and the control drug gemfibrozil (1 μM) were incubated with human liver cancer cells HepG2 for 6 hours, real-time fluorescent quantitative PCR method was used to determine the relative expression of mRNA of related genes in the cells.
(§5) The company which synthesized the primers was Suzhou Hongxun Biotechnology Co., Ltd. Tranzol reagent (Tranzol total RNA extraction reagent, TransGen Biotech) was used to extract total RNA from tissues. 5× All-In-One RT MasterMix reverse transcription kit (Abcam, USA) and real-time quantitative PCR Master Mix (Aidlab Biotechnologies Co., Ltd) were used. Bio-Rad CFX Connect™ Real-Time PCR Detection System for qPCR was used, and 2^−ΔΔCT method was used for data analysis. The expression level of mRNA in the normal control group was set to 1, and the relative expression level of mRNA in the administration group was calculated, so as to confirm whether the active compound affected the PPAR pathway, thereby further regulating lipid metabolism.

ACOX1 = ACOX1 mRNA expression by real-time quantitative PCR in HepG2; assay type: cell-based, human; details: 1 μM, 6 hours, HepG2 (FIG. 5D)
Text: as §4, §5

[2] = test system: RAW264.7 mouse macrophages; test: Determination of NO generation induced by LPS; assay type: cell-based; details: 10 μM, 1 μg/mL LPS, 24 hours, RAW264.7 (FIG. 2)
Protocol: The results are expressed as the multiple of the NO content in the cell culture supernatant of the administration group (10 μM) as compared with that in the cell culture supernatant of the control group (DMSO group), in which compared with the control group, *P<0.05, **P<0.01, ***P<0.001.
NO is a reactive nitrogen species (RNS) and an important gas signal molecule. Macrophages could convert arginine into NO which participated in the body's inflammatory response. Therefore, determination of inhibitory activity of a drug on NO generation was one of the classic methods to evaluate drug's anti-inflammatory ability. RAW264.7 cells at exponential growth phase were inoculated into a 96-well plate at 1×10^4 cells/200 μL. well of medium. After adherence, the medium was discarded, and the cells were subjected to drug treatments. Normal group (serum-free medium), LPS model group (serum-free medium containing 1 μg/mL LPS), LPS+drug group (serum-free medium containing 1 μg/mL LPS, 10 μM gemfibrozil or the compound of the present application) were established, and 3 repeated wells were set for each group. After 24 hours incubation in incubator, cell supernatant of each well was collected and assay was performed according to the instructions of NO determination kit (Nanjing Jiancheng). The absorbance value of each well at wavelength of 540 nm was read and NO content was calculated.

NF-κB = NF-κB luciferase reporter gene transcriptional activity in SW480 cells; assay type: cell-based, human; details: 50 μM, 6 hours, SW480 stably transfected (FIG. 3)
Protocol: as §3

PPARγ = PPARγ mRNA expression by real-time quantitative PCR in HepG2; assay type: cell-based, human; details: 1 μM, 6 hours, HepG2 (FIG. 5B)
Text: as §4, §5

SMILES | CPT1α protein level (CPT1α) | phosphorylation level of GSK3β (phosphorylated GSK3β) | phosphorylation level of IRS-1 (phosphorylated IRS-1) | ARE reporter gene activity [1] | PGC1α mRNA expression (PGC1α) | ACOX1 mRNA expression (ACOX1) | NO generation induced by LPS [2] | activity of NF-κB reporter gene (NF-κB) | PPARγ mRNA expression (PPARγ)
Cc1cc(F)c(C)c(OCCCC(C)(C)C(=O)O)c1 [BJMU-213, 5-(3-fluoro-2,5-dimethylphenoxy)-2,2-dimethylpentanoic acid] | significantly increased CPT1α protein level | significantly increased the phosphorylation level of GSK3β | significantly increased the phosphorylation level of IRS-1 | – | – | – | – | – | –
Cc1cc(Br)c(C)c(C)c1OCCCC(C)(C)C(=O)O [BJMU-409, 5-(4-bromo-2,3,6-trimethylphenoxy)-2,2-dimethylpentanoic acid] | significantly increased CPT1α protein level | significantly increased the phosphorylation level of GSK3β | significantly increased the phosphorylation level of IRS-1 | could significantly activate the ARE reporter gene activity | significantly induced PGC1α mRNA expression | significantly induced ACOX1 mRNA expression | – | – | –
Cc1cc(Br)c(C)c(Br)c1OCCCC(C)(C)C(=O)O [BJMU-109, 5-(2,4-dibromo-3,6-dimethylphenoxy)-2,2-dimethylpentanoic acid] | – | significantly increased the phosphorylation level of GSK3β | significantly increased the phosphorylation level of IRS-1 | – | – | significantly induced ACOX1 mRNA expression | could inhibit NO generation | – | –
Cc1ccc(C)c(OCCCC(C)(C)C(=O)O)c1Br [BJMU-404, 5-(2-bromo-3,6-dimethylphenoxy)-2,2-dimethylpentanoic acid] | significantly increased CPT1α protein level | significantly increased the phosphorylation level of GSK3β | significantly increased the phosphorylation level of IRS-1 | could significantly activate the ARE reporter gene activity | – | significantly induced ACOX1 mRNA expression | – | could significantly inhibit the activity of NF-κB reporter gene | –
Cc1cc(OCCCC(C)(C)C(=O)O)c(CO)cc1Br [BJMU-502, 5-(4-bromo-2-(hydroxymethyl)-5-methylphenoxy)-2,2-dimethylpentanoic acid] | significantly increased CPT1α protein level | – | significantly increased the phosphorylation level of IRS-1 | could significantly activate the ARE reporter gene activity | significantly induced PGC1α mRNA expression | significantly induced ACOX1 mRNA expression | could inhibit NO generation | – | significantly induced PPARγ mRNA expression
